Measured values taken from patent publication US12285403B2, “A2-73 as a therapeutic for insomnia, anxiety and agitation” (Anavex Life Sciences Corp., priority 2016, dated 2025).

Legend:
[1] = system: insomnia, anxiety or agitation; experiment: Single-patient therapy Examples 1-10 (insomnia, anxiety, agitation); assay type: in vivo, human
Method: A person presents as suffering from maintenance insomnia for one year. They are started on oral A2-73 at 10 mg/day. […] They are currently maintained on 10 mg of A2-73 and is sleeping well. A person presents with anxiety of three years' duration. They are administered A2-73 at 20 mg oral per day every other day. […] They are maintained on this dosing schedule for 60 days. […] They are treated with 30 mg A2-73 oral daily for 30 days. […] They are currently maintained at that dosage and is not anxious. A person presents with MCI and reports maintenance insomnia for one year. They are started on oral A1-41 at 10 mg/day. […] They are currently maintained on 10 mg of A1-41 and is sleeping well. The patient is a person with diagnosed AD and reported anxiety of three years' duration. They are administered A19-144 at 20 mg oral per day every day for 90 days. […] They are chronically maintained on this dosing schedule. A person diagnosed with mild cognitive impairment presents as suffering from maintenance insomnia for one year. They are started on oral A2-73 at 50 mg/day. […] They are currently maintained on 50 mg of A2-73 daily and is sleeping well. A person diagnosed with Alzheimer's disease presents with insomnia/WASO and agitation and a systolic blood pressure of 145 mm Hg. They are started on oral A2-73 at 30 mg/day. […] They are also less agitated. Their results on all cognitive tests and HAM-D improve. They are currently maintained on 30 mg of A2-73 daily. A person diagnosed with Alzheimer's disease presents with insomnia/WASO and agitation. They are started on oral A2-73 at 100 mg/day. […] They are also less agitated. Their results on all cognitive tests and HAM-D improve. They are currently maintained on 100 mg of A2-73 every other day. A person diagnosed with Alzheimer's disease presents with insomnia/WASO and agitation. They are started on oral A19-144 at 50 mg/day. […] They are also less agitated. Their results on all cognitive tests and HAM-D improve. They are currently maintained on 50 mg of A19-144 daily. A person diagnosed with Alzheimer's disease presents with insomnia/WASO and agitation. They are started on oral A1-41 at 30 mg/day. […] They are also less agitated. Their results on all cognitive tests and HAM-D improve. They are currently maintained on 30 mg of A1-41 daily.

[2] = system: mild-to-moderate AD patients; experiment: Hamilton Depression Rating Scale (HAM-D), open-label Phase 2a clinical trial; assay type: in vivo, human; conditions: for Insomnia HAM-D Q5 Middle Insomnia, Mean ± SD / Insomnia HAM-D Q6 Late Insomnia, Mean ± SD / Insomnia HAM-D Q4 Initial Insomnia, Mean ± SD: score 0-2; for Insomnia HAM-D Q5 Middle Insomnia, Mean ± SD: baseline 1.5 ± 0.7; for Insomnia HAM-D Q6 Late Insomnia, Mean ± SD: baseline 1.6 ± 0.5; for Insomnia HAM-D Q4 Initial Insomnia, Mean ± SD: baseline 2 ± 0.0
Method: Efficacy data is presented through 31 week from the randomized (into different treatment regimens) open-label study with ANAVEX 2-73 oral daily dosing ranging from 10 mg to 50 mg. The data establish a method for treating insomnia, anxiety, or agitation in a subject. Efficacy extends to daily doses of up to about 100 mg of […], A1-41 or A19-144. Note is made of doses of A2-73, A1-41 or A19-144 of about 10 mg to about 30 mg, about 20 mg to about 40 mg, about 50 mg to about 80 mg. Oral dosing daily or every other day is contemplated.
This is consistent with Table 1 showing a reduction in insomnia, anxiety, and other symptoms.
The data of Table 1 is from an open-label, clinical trial, performed on a group of 30 mild-to-moderate AD patients (MMSE range 16-23, 40% female) on donepezil treatment, with ANAVEX 2-73.

[3] = Example 7: oral 30 mg/day, 30 days
[4] = Example 8: oral 100 mg/day, 30 days
[5] = 30 mild-to-moderate AD patients on donepezil, open-label
[6] = 30 mild-to-moderate AD patients on donepezil, open-label, total 28 improvements

CN(C)CC1CCOC1(c1ccccc1)c1ccccc1.Cl (stereo not drawn) [A2-73, tetrahydro-N,N-dimethyl-2,2-diphenyl-3-furanmethanamine hydrochloride]
Sleep at follow up (maintenance insomnia) ([1]; Example 1: person, oral 10 mg/day, 30 days): sleeping well
Anxiety ([1]; Example 2: person, 20 mg oral every other day, after two days of dosing): Resolution of the anxiety
Clinical evaluation of agitation ([1]; Example 3: person, 30 mg oral daily for 30 days): normal affect without agitation
Sleep at follow up (maintenance insomnia) ([1]; Example 6: person with MCI, oral 50 mg/day, 30 days): sleeping well
Agitation at follow up [1, 3]: less agitated
Results on all cognitive tests and HAM-D [1, 3]: improve
Systolic BP at follow up ([1]; Example 7: oral 30 mg/day, 30 days, 145 mm Hg at presentation): 129 mm Hg
Sleep at follow up (insomnia/WASO) ([1]; Example 7: person with AD, oral 30 mg/day, 30 days): sleeping well through the night
Agitation at follow up [1, 4]: less agitated
Results on all cognitive tests and HAM-D [1, 4]: improve
Sleep at follow up (insomnia/WASO) ([1]; Example 8: person with AD, oral 100 mg/day, 30 days): sleeping well through the night
Scored Improvement Count, improved item of HAM-D: Agitation [2, 5]: 4
Scored Improvement Count, improved item of HAM-D: Anxiety (psychic and somatic) [2, 5]: 5
Scored Improvement Count, improved item of HAM-D: Depressed [2, 5]: 4
Scored Improvement Count, improved item of HAM-D: Guilt [2, 5]: 1
Scored Improvement Count, improved item of HAM-D: Hypochondriasis [2, 5]: 2
Scored Improvement Count, improved item of HAM-D: Insight [2, 5]: 3
Scored Improvement Count, improved item of HAM-D: Insomnia [2, 5]: 8
Scored Improvement Count, improved item of HAM-D: Loss of libido or other genital symptoms [2, 5]: 2
Scored Improvement Count, improved item of HAM-D: Work and activities [2, 5]: 6
Scored Improvement in [%], improved item of HAM-D: Agitation [2, 6]: 14%
Scored Improvement in [%], improved item of HAM-D: Anxiety (psychic and somatic) [2, 6]: 18%
Scored Improvement in [%], improved item of HAM-D: Depressed [2, 6]: 14%
Scored Improvement in [%], improved item of HAM-D: Guilt [2, 6]: 4%
Scored Improvement in [%], improved item of HAM-D: Hypochondriasis [2, 6]: 7%
Scored Improvement in [%], improved item of HAM-D: Insight [2, 6]: 11%
Scored Improvement in [%], improved item of HAM-D: Insomnia [2, 6]: 29%
Scored Improvement in [%], improved item of HAM-D: Loss of libido or other genital symptoms [2, 6]: 7%
Scored Improvement in [%], improved item of HAM-D: Work and activities [2, 6]: 21%
Insomnia HAM-D Q5 Middle Insomnia, Mean ± SD ([2]; Day 13): 1.0 ± 1.4
Insomnia HAM-D Q6 Late Insomnia, Mean ± SD ([2]; Day 13): 0.0 ± 0.0
Insomnia HAM-D Q4 Initial Insomnia, Mean ± SD ([2]; Day 13): 2 ± 0.0
Insomnia HAM-D Q5 Middle Insomnia, Mean ± SD ([2]; Week 12/26): 0.0 ± 0.0
Insomnia HAM-D Q6 Late Insomnia, Mean ± SD ([2]; Week 12/26): 0.0 ± 0.0
Insomnia HAM-D Q4 Initial Insomnia, Mean ± SD ([2]; Week 12/26): 0.0 ± 0.0
Overall Hamilton Depression Rating Scale (HAM-D) ([2]; after 31 weeks of dosing, FIG. 7): reduction
Changes in other behavioral items (HAM-D) ([2]; baseline to week 12): not statistically significant
Subjective reports of insomnia (sleep items of HAM-D) ([2]; baseline to week 12, t=4.2, p<0.05, 30 AD patients, listed as ANAVEX 2-73, hydrochloride): marked insomnia improvements
Scored Improvement Count, improved items of HAM-D: Total ([2]; sum over all improved HAM-D items): 28
